The experiment addresses T1, sterol 14-reductase (Rattus norvegicus, UniProt A0ACM8Q6X4).
T1 construct: microsome which was used as an enzyme source of sterol 14-reductase; from tissue; host or cells: liver microsomes of male Sprague-Dawley rats fed lovastatin and cholestyramine
T1 sequence (A0ACM8Q6X4 1-418): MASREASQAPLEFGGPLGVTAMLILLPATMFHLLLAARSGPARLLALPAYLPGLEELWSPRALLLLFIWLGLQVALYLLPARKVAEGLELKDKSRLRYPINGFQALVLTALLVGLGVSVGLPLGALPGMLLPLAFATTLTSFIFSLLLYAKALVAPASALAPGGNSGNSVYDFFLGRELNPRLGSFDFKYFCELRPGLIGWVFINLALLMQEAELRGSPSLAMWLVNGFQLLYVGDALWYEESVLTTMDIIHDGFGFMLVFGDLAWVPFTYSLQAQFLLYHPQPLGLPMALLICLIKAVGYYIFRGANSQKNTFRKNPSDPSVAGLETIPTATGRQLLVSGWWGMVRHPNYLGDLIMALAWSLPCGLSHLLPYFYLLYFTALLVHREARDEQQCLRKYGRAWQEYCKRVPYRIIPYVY
Description: Inhibition of sterol 14-reductase in rat liver microsomes. It is filed as biochemical. Particulars: read-out: Enzyme Activity (relative in vitro activity for sterol 14-reductase, IC50 class).

One may read the IC50 as the point on the concentration scale where inhibition reaches its midpoint.

Each structure is given as a SMILES string.

`CCc1c2[n+](cc3c(OCc4cccc(C(F)(F)F)c4)c(OC)ccc13)CCc1cc(OC)c(OC)cc1-2` [Compound No. 11, 5,6-dihydro-2,3-dimethoxybenzo[a]-13-ethyl-10-methoxy-9-(3-trifluoromethyl)benzyloxybenzo[g]quinolizinium chloride]: the IC50 was < 1 µM.

Take `CCc1c2[n+](cc3c(OCc4c(F)c(F)c(C(F)(F)F)c(F)c4F)c(OC)ccc13)CCc1cc(OC)c(OC)cc1-2` [Compound No. 13, 5,6-dihydro-2,3-dimethoxybenzo[a]-13-ethyl-10-methoxy-9-(2,3,5,6-tetrafluoro-4-trifluoromethyl)benzyloxy-benzo[g]quinolizinium chloride]: the IC50 is < 1 µM.

With `CCc1c2[n+](cc3c(OCc4ccc(C(C)C)cc4)c(OC)ccc13)CCc1cc(OC)c(OC)cc1-2` [Compound No. 30, 5,6-dihydro-2,3-dimethoxybenzo[a]-13-ethyl-9-[4-(i-propyl)benzyloxy]-10-methoxybenzo[g]quinolizinium chloride], the IC50 is > 100 µM.

For `CCc1c2[n+](cc3c(OCc4c(F)c(F)c(C(F)(F)F)c(F)c4F)c(OC)ccc13)CCc1cc3c(cc1-2)OCO3` [Compound No. 52, 5,6-dihydro-2,3-methylenedioxybenzo[a]-13-ethyl-10-methoxy-9-(2,3,5,6-tetrafluoro-4-trifluoromethyl)benzyloxybenzo[g]quinolizinium iodide], the IC50 lay within 10 to 100 µM.

With `CCc1c2[n+](cc3c(OCc4ccc(-c5ccccc5)cc4)c(OC)ccc13)CCc1cc(OC)c(OC)cc1-2` [Compound No. 16, 5,6-dihydro-2,3-dimethoxybenzo[a]-13-ethyl-10-methoxy-9-(4-phenyl)benzyloxybenzo[g]quinolizinium chloride], the IC50 is < 1 µM.

`CCc1c2[n+](cc3c(OCn4nnc5ccccc54)c(OC)ccc13)CCc1cc(OC)c(OC)cc1-2` [Compound No. 29, 5,6-dihydro-2,3-dimethoxybenzo[a]-9-(1H-benzo-triazol-1-yl)methoxy-13-ethyl-10-methoxybenzo[g]-quinolizinium chloride]: the IC50 was in the range of 10 to 100 µM.

For `CCc1c2[n+](cc3c(OCc4ccc(-c5ccccc5)cc4)c(OC)ccc13)CCc1cc3c(cc1-2)OCO3` [Compound No. 53, 5,6-dihydro-2,3-methylenedioxybenzo[a]-13-ethyl-10-methoxy-9-(4-phenyl)benzloxybenzo[g]quinolizinium iodide], the IC50 fell in the range of 10 to 100 µM.

Turning to `CCc1c2[n+](cc3c(OCc4ccc(Br)cc4)c(OC)ccc13)CCc1cc(OC)c(OC)cc1-2` [Compound No. 19, 5,6-dihydro-2,3-dimethoxybenzo[a]-9-(4-bromo)benzyloxy-13-ethyl-10-methoxybenzo[g]quinolizinium chloride], the IC50 lay within 10 to 100 µM.

As for `CCc1c2[n+](cc3c(OCc4c(F)c(F)c(F)c(F)c4F)c(OC)ccc13)CCc1cc3c(cc1-2)OCO3` [Compound No. 47, 5,6-dihydro-2,3-methylenedioxybenzo[a]-13-ethyl-10-methoxy-9-(2,3,4,5,6-pentafluoro)benzyloxybenzo[g]-quinolizinium iodide], the IC50 is < 1 µM.

For `CCc1c2[n+](cc3c(OCc4cc(OC)cc(OC)c4)c(OC)ccc13)CCc1cc(OC)c(OC)cc1-2` [Compound No. 35, 5,6-dihydro-2,3-dimethoxybenzo[a]-9-(3,5-dimethoxy)benzyloxy-13-ethyl-10-methoxybenzo[g]quinolizinium chloride], the IC50 is > 100 µM.

On to `CCc1c2[n+](cc3c(OCc4c(F)c(F)c(F)c(F)c4F)c(OC)ccc13)CCc1cc(O)c(O)cc1-2` [Compound No. 59, 5,6-dihydro-2,3-dihydroxybenzo[a]-13-ethyl-10-methoxy-9-(2,3,4,5,6-pentafluoro)benzyloxybenzo[g]quinolizinium chloride], for which the IC50 is 10 to 100 µM.

With `CCCCCCCCCCCCOc1c(OCC)ccc2c(CC)c3[n+](cc12)CCc1cc(OCC)c(OCC)cc1-3` [Compound No. 61, 5,6-dihydro-2,3-diethoxybenzo[a]-9-dodecoxy-10-ethoxy-13-ethylbenzo[g]quinolizinium chloride], the IC50 is < 1 µM.

The values above are taken from patent US6028197A, “Dibenzo[a,g]quinolizinium derivatives and the salts thereof” (Hanwha Corporation, priority 1998, dated 2000).
